# Measurements published in publication PMC8010461, “The acyltransferase PMAT1 malonylates brassinolide glucoside” (The Journal of Biological Chemistry, 2021).
# T1: UGT73C5 (Arabidopsis thaliana, UniProt Q9ZQ94)
# T1 construct: recombinant GST-tagged UGT73C5
# T1 sequence (Q9ZQ94 1-495): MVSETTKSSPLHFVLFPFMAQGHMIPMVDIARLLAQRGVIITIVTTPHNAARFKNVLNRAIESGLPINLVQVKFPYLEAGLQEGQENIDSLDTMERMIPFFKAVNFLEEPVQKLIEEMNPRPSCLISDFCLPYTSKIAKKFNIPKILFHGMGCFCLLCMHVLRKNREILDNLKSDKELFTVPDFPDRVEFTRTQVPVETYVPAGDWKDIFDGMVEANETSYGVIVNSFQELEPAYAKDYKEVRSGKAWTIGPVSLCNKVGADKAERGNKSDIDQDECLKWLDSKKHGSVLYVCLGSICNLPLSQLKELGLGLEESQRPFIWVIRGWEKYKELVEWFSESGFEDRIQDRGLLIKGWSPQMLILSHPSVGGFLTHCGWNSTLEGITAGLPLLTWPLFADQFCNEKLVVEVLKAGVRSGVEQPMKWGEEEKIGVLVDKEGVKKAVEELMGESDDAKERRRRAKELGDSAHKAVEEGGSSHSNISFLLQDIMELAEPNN
# B1: At5MAT (Arabidopsis thaliana) (protein)
# chain: MVNFNSAVNILEVVQVSPPSSNSLTLPLTYFDLGWLKLHPVDRVLFYHVPELTRSSLISKLKSSLSATLLHYLPLAGRLVWDSIKTKPSIVYSPDDKDAVYLTVAESNGDLSHLSGDEPRPATEFHSLVPELPVSDESARVLAVQVTFFPNQGFSLGVTAHHAVLDGKTTAMFLKAWAHNCKQEQEALPHDLVPSLDRIIVQDPTGLETKLLNRWISASNNKPSLKLFPSKIIGSDILRVTYRLTREDIKKLRERVETESHAKQLRLSTFVITYAYVITCMVKMRGGDPTRFVCVGFASDFRSRLNPPLPPTFFGNCIVGSGDFDVKAEPILEEGEGKGFITAVETLTGWVNGLCPENIEKNMLLPFEAFKRMEPGRQMISVAGSTRLGIYGSDFGWGKPVKVEIVTIDKDASVSLSESGDGSGGVEVGVCLKKDDVERFGSLFSIGLE
# notes: full ORF, GST fusion (pGEX-4T-2-At5MAT), E. coli BL21, glutathione Sepharose purified; GST tag kept
# B2: PMAT1 (Arabidopsis thaliana) (protein)
# chain: MVNEEMESSLKVIDVARVTPSNSDSSESLTLPLTFFDLLWYKLHAVERVIFYKLTDASRPFFDSVIVPNLKTSLSSSLSHYLPLAGKLVWEPLDPKPKIVYTPNDAVSFTVAESNADFSRLTGKEPFPTTELYPLVPELHVSDDSASAVSFQVTLFPNQGFCISVNAHHAVLDGKTTTNFLKSWARTCKNQDSFLPQDLIPVYDRTVIKDPMDLDTKILNAWHRVAKVFTGGKEPENPKSLKLLWSPEIGPDVFRYTLNLTREDIQKLRERLKKESSSSSVSSSPKELRLSTFVIVYSYALTCLIKARGGDPSRPVGYGFAVDCRSLMVPPVPSSYFGNCVSACFKMSLTAETFMSEEGFLAAARMVSDSVEALDENVALKIPEILEGFTTLSPGTQVLSVAGSTRFGVYGLDFGWGRPEKVVVVSIDQGEAISFAESRDGSGGVELGFSLKKHEMDVLVDLLHKGLEN
# notes: full ORF, GST fusion (pGEX-4T-2-PMAT1), E. coli BL21, glutathione Sepharose purified; GST tag kept
# Experiments:
# [1] = target: T1, UGT73C5; assay: preparative in vitro glucosylation, product purified by HPLC; type: biochemical; details: co-substrate UDP-glucose; glucosylation at C-23
# [2] = target: T1, UGT73C5; assay: in vitro glucosylation, product confirmed by HR-MS and HR-MS/MS; type: biochemical; details: reference compound synthesis; glucosylation at C-23
# [3] = substrate: CC(C)[C@@H](C)[C@@H](O[C@@H]1O[C@H](CO)[C@@H](O)[C@H](O)[C@H]1O)[C@H](O)[C@@H](C)[C@H]1CC[C@H]2[C@@H]3COC(=O)[C@H]4C[C@H](O)[C@H](O)C[C@]4(C)[C@H]3CC[C@]12C; assay: purified protein; type: biochemical, Arabidopsis thaliana; details: co-substrate malonyl-CoA 2.5 mM, 50 mM sodium phosphate pH 8.0, 30 °C
molecule,measurement,setting,value
CC(C)[C@@H](C)[C@@H](O)[C@H](O)[C@@H](C)[C@H]1CC[C@H]2[C@@H]3COC(=O)[C@H]4C[C@H](O)[C@H](O)C[C@]4(C)[C@H]3CC[C@]12C [24-epiBL],"preparative in vitro glucosylation, product purified by HPLC",[1],"24-epiBL (epiBL) as an acceptor were carried out, and the resulting epiBL-23-O-Glc was purified"
CC(C)[C@H](C)[C@@H](O)[C@H](O)[C@@H](C)[C@H]1CC[C@H]2[C@@H]3COC(=O)[C@H]4C[C@H](O)[C@H](O)C[C@]4(C)[C@H]3CC[C@]12C [brassinolide],"in vitro glucosylation, product confirmed by HR-MS and HR-MS/MS",[2],"BL-23-O-MalGlc as analytical reference, which were generated in vitro with recombinant UGT73C5 and PMAT1"
B1,Km,[3]; 240 min,71 µM
B2,Km,[3]; 20 min,235 µM
